Like-named read-outs stand apart in the source and are kept apart here.

This note sets out measurements from PMC11346435, “Regulation of Rubisco activity by interaction with chloroplast metabolites” (Biochemical Journal, 2024).

For data set [1], the target named is T1, Rubisco (ribulose-1,5-bisphosphate carboxylase/oxygenase), carbamylated rice enzyme (Oryza sativa, UniProt P0C512).
T1 construct: gene rbcL; Rubisco purified from rice leaves (cv. Nipponbare), L8S8 complex, carbamylated; with Rubisco small subunit (L8S8 holoenzyme)
T1 sequence (Q0INY7 47-175, other chains not shown): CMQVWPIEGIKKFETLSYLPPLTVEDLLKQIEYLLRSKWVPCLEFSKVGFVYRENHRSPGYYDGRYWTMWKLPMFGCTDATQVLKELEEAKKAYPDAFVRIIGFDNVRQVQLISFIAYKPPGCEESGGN
Briefly: […]CO2 incorporation assay with purified Rubisco, dose-response and Vmax/Km kinetics (competitive inhibition). In kind it is biochemical. The following applies: read-out: % inhibition at 12 mM.

Data set [2] has as its target T1, Rubisco (ribulose-1,5-bisphosphate carboxylase/oxygenase), carbamylated rice enzyme. Briefly: […]CO2 incorporation assay with purified Rubisco, dose-response and Vmax/Km kinetics. The format is biochemical. The following applies: read-out: % inhibition at 0.3 μM.
Data set [3] has the same target. Briefly: biochemical. Set-up: 14CO2 incorporation by purified activated rice Rubisco; apparent Ki from Michaelis-Menten kinetics. The following applies: noncompetitive-like, apparent Ki. On the procedure:
Water was used as control and for each metabolite an intermediate and the highest concentration were used, with the exceptions of CABP for which the maximum concentration was 0.2 µM (as at the maximum concentration 0.3 µM the activity was very low) and for 3-PGA we used 8 and 12 mM (as these were the concentrations that affected Rubisco activity under saturating substrate concentrations). Basic assay buffer (100 mM Bicine-NaOH, pH 8.2, 20 mM MgCl2 and 2 mM KH2PO4) was sparged with compressed air which passed through soda lime and 1 M NaOH to remove CO2. […] The incubation with metabolite and activity were performed as described above. Vmax and Km were calculated using the Michaelis-Menten equation [58]. […] The incubation and activity were performed as described above and the activity was expressed as % of control samples (where control is 100%). Given the constraints associated with two substrate Rubisco activity and its interaction with tight binding inhibitions, we used a simplistic approximation to estimate apparent inhibitor constants (Kiapp) based on the Michaelis-Menten equations [59] (eqn 1) and on the ‘quotient velocity plot’ [60] (eqn 2). Where [I] is the inhibitor concentration and α was estimated according to the inhibition type: […]

Data set [4] has the same target. Briefly: […]CO2 incorporation assay with purified Rubisco, dose-response and Vmax/Km kinetics. The format is biochemical.
The subject of data set [5] is O=C(COP(=O)(O)O)[C@H](O)[C@H](O)COP(=O)(O)O. Briefly: purified protein. The following applies: Mg2+; carbamylated Lys201 (activator CO2) catalytic site.
The mark [6] stands for this setting: Eq. 1 (Michaelis-Menten), read-out: Ki^app (Eq. 1).
The mark [7] stands for this setting: Eq. 2 (quotient velocity plot), read-out: Ki^app (Eq. 2).

`O=C(O)[C@H](O)COP(=O)(O)O` [3-PGA]: in data set [1], the inhibition at 12000 µM is approximately 30%.
In the case of `O=C(O)[C@@](O)(COP(=O)(O)O)[C@H](O)[C@H](O)COP(=O)(O)O` [CABP], in data set [2], the inhibition at 0.3 µM is approximately 86%. For the same compound, the Ki in data set [3] (setting [6]) was found to be 120 ± 20 nM; in data set [3] (setting [7]), 100 ± 20 nM.
Consider `O=C(O)[C@@](O)(COP(=O)(O)O)[C@H](O)[C@H](O)CO` [CA1P], for which the “14CO2 incorporation assay with purified Rubisco, dose-response and Vmax/Km kinet” value in data set [4] is on record as “activity decreases by half at 0.3”. The Ki in data set [3] (setting [6]) is 440 ± 80 nM; in data set [3] (setting [7]), 440 ± 10 nM.
“Rubisco (ribulose-1,5-bisphosphate carboxylase/oxygenase), carbamylated rice enzyme (Oryza sativa Japonica Group)”: the Km in data set [5] came to 78.08 ± 3.29 µM.
